Reference: paper PMC10202811 (Nature Medicine, 2023)
“And” between values parts separate entries of the source, which are not always exact repeats. Equal values may be shown once. “Also recorded” adds a separate entry of the source. Marks after values point to notes of the source that are not given here.

Assay: Toxicity assessment (CTCAE version 4): treatment-related AEs, DLTs, dose reductions, RP2D; phase 1 NANT2015-02
Conditions: for Toxicity Maximum Grade per patient: Sinus tachycardia / Toxicity Maximum Grade per patient: Neutrophil count decreased: CTCAE grade
Description: Five DLs (45, 60, 75, 95 and 115 mg/m^2/dose) were assessed in A1, using a 3 + 3 design. […] Myeloid growth factor was given 24 hours after the completion of topotecan/cyclophosphamide on B2, according to institutional standards. Instructions and hands-on training for a tablet dispersion formulation, validated by Pfizer, was provided to families of patients who could not swallow tablets.
Initially, this was the only DL planned, but, with a subsequent amendment, a second DL was added to cohort A2 (150 mg). […] Finally, because of the nature of the patients in cohort A2 (which had only two planned DLs), an expansion of up to six additional patients was planned for the highest DL tested with zero or one DLT in six DLT-evaluable patients. Accrual could continue in the expansion cohort as long as none, or at most one, of the patients experienced DLT in the DLT observation period; if two or more patients experienced DLT in the DLT observation period, this would lead to a discussion of the suitability of this dose. The probability of observing […] with DLT, out of six patients, is 0.11, 0.22, 0.47, 0.68 and 0.77 when the true probability of DLT is 0.10, 0.15, 0.25, 0.35 and 0.40, respectfully.
Patients who were not evaluable for DLT were replaced for dose-escalation purposes. […] The MTD was defined as the highest DL tested at which zero of six or one of six patients experience DLT. After determination of the MTD and review of all toxicities, and provided that other safety considerations were acceptable, the MTD was labeled the RP2D.
Toxicity was graded according to CTCAE version 4. DLT definitions included only toxicities deemed at least possibly related to therapy. For A1 and A2, hematologic DLT was defined as grade 4 thrombocytopenia or grade 4 neutropenia >7-day duration or a delay in the start of subsequent course by more than 14 days due to ongoing thrombocytopenia or neutropenia, in the absence of bone marrow disease progression seen on clinically indicated bone marrow biopsy (if performed). For cohort B2, hematological DLT is defined as a delay in the start of subsequent course by more than 14 days due to ongoing thrombocytopenia or neutropenia, in the absence of bone marrow disease progression seen on clinically indicated bone marrow biopsy after the first dose reduction of cyclophosphamide and topotecan. Non-hematologic DLT was defined as any non-hematologic toxicity that delayed the start of a subsequent cycle by more than 14 days or any grade ≥3 toxicity, with the exception of the following grade 3 toxicities: nausea, vomiting, anorexia or dehydration resolving to grade ≤2 within 72 hours; increase in hepatic transaminase or electrolyte abnormality resolving eligibility levels within 7 days; diarrhea persisting for less than 72 hours; fever; infection; febrile neutropenia; high cholesterol or triglycerides if responsive (to ≤grade 2) with statin treatment; weight gain; and hyperglycemia if responsive (to <grade 2) with dietary modification.

[1] = Cohort A1, neurotoxicity, one line per patient (PID)
[2] = Cohort A1, one line per patient (PID)

SMILES: C[C@H]1Oc2cc(cnc2N)-c2c(nn(C)c2C#N)CN(C)C(=O)c2ccc(F)cc21 [Lorlatinib, (10R)-7-amino-12-fluoro-2,10,16-trimethyl-15-oxo-10,15,16,17-tetrahydro-2H-8,4-(metheno)pyrazolo[4,3-h][2,5,11]-benzoxadiazacyclotetradecine-3-carbonitrile]
- patients developing grade 2 CNS effects (<18 years (cohorts A1 and B2), two of 33): 6%
- patients requiring a dose reduction (<18 years, lorlatinib monotherapy): 9%
- CNS DLT (CTCAE V4) (A1 (< 18 yrs), DL 5 (115 mg/m^2)): Grade 2 hallucination/insomnia
- DLT (A1, DL5 (115 mg/m^2), course 1): YES
- Toxicity reason for Dose reduction (A1, DL5 (115 mg/m^2), course 1): Grade 3 Diarrhea (lactose intolerance)
- DLT (A1, DL5 (115 mg/m^2), course 3): Delayed DLT
- Toxicity reason for Dose reduction (A1, DL5 (115 mg/m^2), course 3): Grade 2 Hallucination/insomnia^1
- CNS DLT (CTCAE V4) (A2 (≥ 18 yrs), 100 mg): Grade 2 memory impairment
- CNS DLT (CTCAE V4) (A2 (≥ 18 yrs), 150 mg): Grade 2-4 hallucinations, delusions, suicidal ideations; also recorded: Grade 3 agitation^g; also recorded: Grade 4 Mania
- DLT (A2, 100 mg, course 3): Delayed DLT^2
- Toxicity reason for Dose reduction (A2, 100 mg, course 3): Grade 3 Hyperglycemia
- DLT (A2, 100 mg, course 7): Delayed DLT
- Toxicity reason for Dose reduction (A2, 100 mg, course 7): Grade 2 Memory impairment
- DLT (A2, 150 mg, course 2): YES
- Toxicity reason for Dose reduction (A2, 150 mg, course 2): Grade 2-4 Delusions, psychosis, suicide attempt^3
- DLT (A2, 150 mg, course 2 (second patient)): YES
- Toxicity reason for Dose reduction (A2, 150 mg, course 3): Grade 2 Lower extremity edema^5
- DLT (A2, 150 mg, course 4): Delayed DLT
- Toxicity reason for Dose reduction (A2, 150 mg, course 4): Grade 2 Peripheral neuropathy/edema
- Toxicity reason for Dose reduction (A2, 150 mg, course 5): Grade 2 Peripheral neuropathy^6
- CNS DLT (CTCAE V4) (B2 (< 18yrs), DL 5 (115 mg/m^2)): Grade 2 anxiety, depression, somnolence, hypersomnia
- DLT (B2, DL5 (115 mg/m^2), course 3): Delayed DLT
- Toxicity reason for Dose reduction (B2, DL5 (115 mg/m^2), course 3): Grade 2 anxiety, depression, somnolence, hypersomnia
- Patients with DLT in course 1 (Cohort A1, DL1 (45 mg/m^2)): 0
- Patients with DLT in course 2 (Cohort A1, DL1 (45 mg/m^2)): 0
- Patients with DLT in other courses (Cohort A1, DL1 (45 mg/m^2)): 0
- Patients with DLT in course 1 (Cohort A1, DL2 (60 mg/m^2)): 0
- Patients with DLT in course 2 (Cohort A1, DL2 (60 mg/m^2)): 0
- Patients with DLT in other courses (Cohort A1, DL2 (60 mg/m^2)): 0
- Patients with DLT in course 1 (Cohort A1, DL3 (75 mg/m^2)): 0
- Patients with DLT in course 2 (Cohort A1, DL3 (75 mg/m^2)): 0
- Patients with DLT in other courses (Cohort A1, DL3 (75 mg/m^2)): 0
- Patients with DLT in course 1 (Cohort A1, DL4 (95 mg/m^2)): 0
- Patients with DLT in course 2 (Cohort A1, DL4 (95 mg/m^2)): 0
- Patients with DLT in other courses (Cohort A1, DL4 (95 mg/m^2)): 0
- Patients with DLT in course 1 (Cohort A1, DL5 (115 mg/m^2)): 1^b
- Patients with DLT in course 2 (Cohort A1, DL5 (115 mg/m^2)): 0
- Patients with DLT in other courses (Cohort A1, DL5 (115 mg/m^2)): 1^b
- Toxicity Maximum Grade per patient: Sinus tachycardia (Cohort A1, patient PID 9): 2
- Toxicity Maximum Grade per patient: Sinus tachycardia (Cohort A1, patient PID 17): 1
- Toxicity Maximum Grade per patient: Sinus tachycardia (Cohort A1, patient PID 18): 1
- Toxicity Maximum Grade per patient: Neutrophil count decreased (Cohort A1, patient PID 21): 2
- Toxicity Maximum Grade per patient: Neutrophil count decreased (Cohort A1, patient PID 31): 3
- Amnesia (CNS effect) (Cohort A1, grade 1-4 in c1-c4): 0 (0)
- Confusion (CNS effect) (Cohort A1, grade 1-4 in c1-c4): 0 (0)
- Delirium (CNS effect) (Cohort A1, grade 1-4 in c1-c4): 0 (0)
- Delusions (CNS effect) (Cohort A1, grade 1-4 in c1-c4): 0 (0)
- Dysarthria (CNS effect) (Cohort A1, grade 1-4 in c1-c4): 0 (0)
- Euphoria (CNS effect) (Cohort A1, grade 1-4 in c1-c4): 0 (0)
- Hypersomnia (CNS effect) (Cohort A1, grade 1-4 in c1-c4): 0 (0)
- Mania (CNS effect) (Cohort A1, grade 1-4 in c1-c4): 0 (0)
- Paresthesia (CNS effect) (Cohort A1, grade 1-4 in c1-c4): 0 (0)
- Restlessness (CNS effect) (Cohort A1, grade 1-4 in c1-c4): 0 (0)
- Somnolence (CNS effect) (Cohort A1, grade 1-4 in c1-c4): 0 (0)
- Stuttering (CNS effect) (Cohort A1, grade 1-4 in c1-c4): 0 (0)
- Suicidal ideation (CNS effect) (Cohort A1, grade 1-4 in c1-c4): 0 (0)
- Agitation: Toxicity Maximum Grade per patient [1]: 1
- Anxiety: Toxicity Maximum Grade per patient [1]: 1
- Cognitive disturbance: Toxicity Maximum Grade per patient [1]: 1
- Concentration impairment: Toxicity Maximum Grade per patient [1]: 1
- Depression: Toxicity Maximum Grade per patient [1]: 1
- Hallucinations: Toxicity Maximum Grade per patient [1]: 2
- Headache: Toxicity Maximum Grade per patient [1]: 1
- Memory impairment: Toxicity Maximum Grade per patient [1]: 1
- Alanine aminotransferase increased: Toxicity Maximum Grade per patient [2]: 1 and 2
- Alkaline phosphatase increased: Toxicity Maximum Grade per patient [2]: 1 and 2
- Anemia: Toxicity Maximum Grade per patient [2]: 2 and 1 and 3
- Aspartate aminotransferase increased: Toxicity Maximum Grade per patient [2]: 1 and 3 and 2
- Cholesterol high: Toxicity Maximum Grade per patient [2]: 2 and 1 and 3
- Creatinine increased: Toxicity Maximum Grade per patient [2]: 1
- Diarrhea: Toxicity Maximum Grade per patient [2]: 1 and 3
- Edema limbs: Toxicity Maximum Grade per patient [2]: 1
- Electrocardiogram QT corrected interval prolonged: Toxicity Maximum Grade per patient [2]: 1
- Fatigue: Toxicity Maximum Grade per patient [2]: 1
- Flatulence: Toxicity Maximum Grade per patient [2]: 2 and 1
- Gastroesophageal reflux disease: Toxicity Maximum Grade per patient [2]: 2
- Hyperglycemia: Toxicity Maximum Grade per patient [2]: 1 and 3
- Hypertriglyceridemia: Toxicity Maximum Grade per patient [2]: 1 and 2 and 3
- INCREASED APPETITE: Toxicity Maximum Grade per patient [2]: 1
- Irritability: Toxicity Maximum Grade per patient [2]: 1
- Lymphocyte count decreased: Toxicity Maximum Grade per patient [2]: 1 and 3
